From patent US20130302782A1, “Methods for the Phenotypic Detection of HCV Inhibitor Resistant Subpopulations” (Laboratory Corporation of America Holdings, priority 2011, published 2013)

Test system: HCV replicon RTVs containing the NS5B region of Con1 or H77 reference and SDM mutants
Test: PhenoSense HCV NS5B Assay: luciferase replicon resistance test vector inhibitor susceptibility in Huh7 cells
Assay type: cell-based, hepatitis C virus
Conditions: MT:WT RTV mixtures 0-100% mutant; control inhibitor
Protocol: RTV RNA was electroporated into a Huh7 cell line, and electroporated cells were incubated in the absence and presence of serially diluted inhibitors. RNA input was monitored by measuring the amount of luciferase activity produced in the electroporated cells at 4 hours post-electroporation. Luciferase activity is expressed as relative light units (RLU). Replication capacity (RC) was determined by evaluating luciferase activity at 72-96 hours postelectroporation in the absence of inhibitor, relative to RNA input and a control reference replicon RTV (Con1). A replication defective Con1 replicon (Con1 polymerase defective) was utilized to determine assay background (data not shown) Inhibitor susceptibility was determined by evaluating the ability of RTVs to replicate in the absence and presence of inhibitor at 72-96 hours post-electroporation. […]
Assay accuracy was assessed by evaluating the HCV polymerase inhibitor susceptibility of RTVs containing the NS5B region of well-characterized subtype 1a (H77) and 1b (Con1) reference sequences and subtype 1a and 1b reference sequences engineered by site-directed mutagenesis (SDM) to contain mutations that confer reduced susceptibility to inhibitors of HCV RdRp (FIG. 3) Inhibitor susceptibility data (IC50-FC and IC95-FC) were analyzed for concordance with phenotypic data reported in the scientific literature. […]

Substance: interferon [INF]
- susceptibility as a function of the proportion of MT RTV within a mixture: not affected
